SMILES strings stand for the structures. Where only a bound is given, the exact number is not on record here.

What is called IC50 is the concentration at which inhibition is half-maximal.

The target of this assay is T1, Recombinant full length human OGA enzyme (Homo sapiens, UniProt O60502).
T1 construct: Recombinant full length human OGA enzyme was purchased from Origene; purchased Origene
T1 sequence (O60502 1-916): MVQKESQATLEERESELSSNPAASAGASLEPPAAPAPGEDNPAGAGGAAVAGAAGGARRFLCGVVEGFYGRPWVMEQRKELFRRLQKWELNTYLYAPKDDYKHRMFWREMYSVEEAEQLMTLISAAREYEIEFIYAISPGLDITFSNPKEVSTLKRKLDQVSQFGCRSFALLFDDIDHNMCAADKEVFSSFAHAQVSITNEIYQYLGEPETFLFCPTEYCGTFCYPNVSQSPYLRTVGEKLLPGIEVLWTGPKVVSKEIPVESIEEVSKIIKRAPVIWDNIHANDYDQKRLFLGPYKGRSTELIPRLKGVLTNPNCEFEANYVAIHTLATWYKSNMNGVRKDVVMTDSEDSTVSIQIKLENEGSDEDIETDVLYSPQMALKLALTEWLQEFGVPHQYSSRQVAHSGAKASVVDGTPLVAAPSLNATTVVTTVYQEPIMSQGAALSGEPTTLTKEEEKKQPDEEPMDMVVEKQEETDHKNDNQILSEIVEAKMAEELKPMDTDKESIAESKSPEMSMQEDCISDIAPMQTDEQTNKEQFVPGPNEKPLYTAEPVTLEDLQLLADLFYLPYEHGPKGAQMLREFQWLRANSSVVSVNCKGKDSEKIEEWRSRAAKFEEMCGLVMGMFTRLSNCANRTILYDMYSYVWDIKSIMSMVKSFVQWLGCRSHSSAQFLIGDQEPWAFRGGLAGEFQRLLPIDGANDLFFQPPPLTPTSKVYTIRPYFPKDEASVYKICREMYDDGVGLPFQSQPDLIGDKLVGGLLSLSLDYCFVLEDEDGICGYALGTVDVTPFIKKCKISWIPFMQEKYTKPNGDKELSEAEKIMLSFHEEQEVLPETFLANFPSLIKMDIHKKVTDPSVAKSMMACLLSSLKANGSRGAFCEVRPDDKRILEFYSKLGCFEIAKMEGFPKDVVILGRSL
As to the kind of experiment: OGA enzyme inhibition biochemical assay. Particulars: 1 nM OGA, 100 μM 4-MUGlcNAc (Km), pH 6.4, 90 minutes at room temperature, 10-point dose-response from 20 μM. The procedure:
N-(5-(((2S,4R)-4-([1,2,4]triazolo[4,3-a]pyrazin-3-yloxy)-2-methylpyrrolidin-1-yl)methyl)-4-fluorothiazol-2-yl)acetamide: The title compound was prepared in an analogous manner as Example 172 from 3-bromo-[1,2,4]triazolo[4,3-a]pyrazine. LCMS (ESI): [M+H] 392. ^1H NMR (600 MHz, CHLOROFORM-d) δ 10.75 (br s, 1H), 9.04 (s, 1H), 9.03 (s, 1H), 7.24 (s, 1H), 4.99-5.06 (m, 1H), 4.01 (d, J=14.49 Hz, 1H), 3.64 (d, J=14.67 Hz, 1H), 3.40 (d, J=11.55 Hz, 1H), 2.75 (dd, J=5.78, 11.46 Hz, 1H), 2.61-2.72 (m, 2H), 2.32 (s, 4H), 1.84-1.92 (m, 1H), 1.30 (d, J=5.87 Hz, 4H). ^19F NMR (565 MHz, CHLOROFORM-d) 6-115.92 (br s, 1F). OGA Enzyme Inhibition Biochemical Assay
Recombinant full length human OGA enzyme was purchased from Origene. 4-MUGlCNAc substrate was purchased from Sigma. All other reagents were purchased from Sigma or Fisher. Assay buffer consists of the McIlvaine buffer system, pH 6.4 (0.2M Na2HPO4 mixed with 0.1M citric acid) and 0.01% BSA. Reactions consist of 1 nM OGA, 100 μM 4-MUGlcNAc (Km), and compound in a final volume of 10 μl. Reactions were incubated for 90 minutes at room temperature and quenched with 40 μl of 3M glycine, pH 10 and read on a Perkin Elmer Envision plate reader (Ex: 355 nm/Em: 460 nm). Compounds were tested with a 10-point dose-response starting from 20 μM with a 4-fold dilution. Data, as presented in Table 1 below, was fit using GraphPad Prism using a 4-parameter fit with variable slope.
`CC(=O)Nc1ncc(CN2C[C@H](Oc3ccc4cccnc4n3)C[C@@H]2C)s1` [Example 81, N-(5-(((2S,4R)-4-((1,8-naphthyridin-2-yl)oxy)-2-methylpyrrolidin-1-yl)methyl)thiazol-2-yl)acetamide]: the IC50 was < 1 nM. For the compound `CC(=O)Nc1ncc(CN2C[C@H](Oc3ncnc4occc34)C[C@@H]2C)s1` [Example 73, N-(5-(((2S,4R)-4-(furo[2,3-d]pyrimidin-4-yloxy)-2-methylpyrrolidin-1-yl)methyl)thiazol-2-yl)acetamide], the IC50 is < 1 nM. On to `CC(=O)Nc1nc(F)c(CN2C[C@H](Oc3cccc4nn(C)cc34)C[C@@H]2C)s1` [Example 84, N-(4-fluoro-5-(((2S,4R)-2-methyl-4-((2-methyl-2H-indazol-4-yl)oxy)pyrrolidin-1-yl)methyl)thiazol-2-yl)acetamide], for which the IC50 is < 1 nM. For `CC(=O)Nc1ncc(CN2C[C@H](Oc3cncc4nccn34)C[C@@H]2C)s1` [Example 99, N-(5-(((2S,4R)-4-(imidazo[1,2-a]pyrazin-5-yloxy)-2-methylpyrrolidin-1-yl)methyl)thiazol-2-yl)acetamide] the value was < 1 nM.

For `COc1ccc2ccc(O[C@@H]3C[C@H](C)N(Cc4sc(NC(C)=O)nc4F)C3)nc2c1` [Example 80, N-(4-fluoro-5-(((2S,4R)-4-((7-methoxyquinolin-2-yl)oxy)-2-methylpyrrolidin-1-yl)methyl)thiazol-2-yl)acetamide], the IC50 is < 1 nM. `CC(=O)Nc1ncc(CN2C[C@H](Oc3ncc4c(C)csc4n3)C[C@@H]2C)s1` [Example 3, N-(5-(((2S,4R)-2-methyl-4-((5-methylthieno[2,3-d]pyrimidin-2-yl)oxy)pyrrolidin-1-yl)methyl)thiazol-2-yl)acetamide]: the IC50 was < 1 nM. The same measure for `CC(=O)Nc1nc(F)c(CN2C[C@H](Oc3ncc4ccn(C)c4n3)C[C@@H]2C)s1` [Example 110, N-(4-fluoro-5-(((2S,4R)-2-methyl-4-((7-methyl-7H-pyrrolo[2,3-d]pyrimidin-2-yl)oxy)pyrrolidin-1-yl)methyl)thiazol-2-yl)acetamide]: < 1 nM; for `CC(=O)Nc1nc(F)c(CN2C[C@H](Oc3ncnc4c(F)cccc34)C[C@@H]2C)s1` [Example 122, N-(4-fluoro-5-(((2S,4R)-4-((8-fluoroquinazolin-4-yl)oxy)-2-methylpyrrolidin-1-yl)methyl)thiazol-2-yl)acetamide]: < 1 nM; for `CC(=O)Nc1nc(F)c(CN2C[C@H](Oc3ccnc4cn(C)nc34)C[C@@H]2C)s1` [Example 134, N-(4-fluoro-5-(((2S,4R)-2-methyl-4-((2-methyl-2H-pyrazolo[4,3-b]pyridin-7-yl)oxy)pyrrolidin-1-yl)methyl)thiazol-2-yl)acetamide]: < 1 nM. As for `CC(=O)Nc1nc(F)c(CN2C[C@H](Oc3ccn4nccc4n3)C[C@@H]2C)s1` [Example 62, N-(4-fluoro-5-(((2S,4R)-2-methyl-4-(pyrazolo[1,5-a]pyrimidin-5-yloxy)pyrrolidin-1-yl)methyl)thiazol-2-yl)acetamide], the 50% inhibitory concentration (IC50) was < 1 nM. Consider `CC(=O)Nc1ncc(CN2C[C@H](Oc3c(Cl)ccn4ccnc34)C[C@@H]2C)s1` [Example 38, N-(5-(((2S,4R)-4-((7-chloroimidazo[1,2-a]pyridin-8-yl)oxy)-2-methylpyrrolidin-1-yl)methyl)thiazol-2-yl)acetamide], for which the IC50 is < 1 nM.

Take `CC(=O)Nc1ncc(CN2C[C@H](Oc3nc4c(cc3C#N)CCCC4)C[C@@H]2C)s1` [Example 32, N-(5-(((2S,4R)-4-((3-cyano-5,6,7,8-tetrahydroquinolin-2-yl)oxy)-2-methylpyrrolidin-1-yl)methyl)thiazol-2-yl)acetamide]: the IC50 worked out at 11 nM. The same measure for `CC(=O)Nc1nc(F)c(CN2C[C@H](Oc3cc4cnn(C)c4cn3)C[C@@H]2C)s1` [Example 90, N-(4-fluoro-5-(((2S,4R)-2-methyl-4-((1-methyl-1H-pyrazolo[3,4-c]pyridin-5-yl)oxy)pyrrolidin-1-yl)methyl)thiazol-2-yl)acetamide]: < 1 nM. For the compound `CC(=O)Nc1nc(F)c(CN2C[C@H](Oc3ccc4nccnc4n3)C[C@@H]2C)s1` [Example 117, N-(4-fluoro-5-(((2S,4R)-2-methyl-4-(pyrido[2,3-b]pyrazin-6-yloxy)pyrrolidin-1-yl)methyl)thiazol-2-yl)acetamide], the IC50 was < 1 nM. For `CC(=O)Nc1ncc(CN2C[C@H](Oc3ccc4ccn(C)c4n3)C[C@@H]2C)s1` [Example 162, N-(5-(((2S,4R)-2-methyl-4-((1-methyl-1H-pyrrolo[2,3-b]pyridin-6-yl)oxy)pyrrolidin-1-yl)methyl)thiazol-2-yl)acetamide] the value was < 1 nM. For `CC(=O)Nc1ncc(CN2C[C@H](Oc3nc4cccnc4n3C)C[C@@H]2C)s1` [Example 91, N-(5-(((2S,4R)-2-methyl-4-((3-methyl-3H-imidazo[4,5-b]pyridin-2-yl)oxy)pyrrolidin-1-yl)methyl)thiazol-2-yl)acetamide], the IC50 was found to be 5 nM. In the case of `CC(=O)Nc1nc(F)c(CN2C[C@H](Oc3ncnc4cccnc34)C[C@@H]2C)s1` [Example 116, N-(4-fluoro-5-(((2S,4R)-2-methyl-4-(pyrido[3,2-d]pyrimidin-4-yloxy)pyrrolidin-1-yl)methyl)thiazol-2-yl)acetamide], the IC50 came to 2.6 nM. In the case of `CC(=O)Nc1nc(F)c(CN2C[C@H](Oc3ccc4ccccc4n3)C[C@@H]2C)s1` [Example 78, N-(4-fluoro-5-(((2S,4R)-2-methyl-4-(quinolin-2-yloxy)pyrrolidin-1-yl)methyl)thiazol-2-yl)acetamide], the IC50 is < 1 nM. In the case of `CC(=O)Nc1ncc(CN2C[C@H](Oc3ccc4cn(C)nc4c3)C[C@@H]2C)s1` [Example 52, N-(5-(((2S,4R)-2-methyl-4-((2-methyl-2H-indazol-6-yl)oxy)pyrrolidin-1-yl)methyl)thiazol-2-yl)acetamide], the concentration for half-maximal inhibition (IC50) is < 1 nM. In the case of `CC(=O)Nc1nc(F)c(CN2C[C@H](Oc3ncnc4c3cnn4C)C[C@@H]2C)s1` [Example 143, N-(4-fluoro-5-(((2S,4R)-2-methyl-4-((1-methyl-1H-pyrazolo[3,4-d]pyrimidin-4-yl)oxy)pyrrolidin-1-yl)methyl)thiazol-2-yl)acetamide], the half-maximal inhibitory concentration (IC50) was < 1 nM. `CC(=O)Nc1nc(F)c(CN2C[C@H](Oc3cccc4cn(C)nc34)C[C@@H]2C)s1` [Example 161, N-(4-fluoro-5-(((2S,4R)-2-methyl-4-((2-methyl-2H-indazol-7-yl)oxy)pyrrolidin-1-yl)methyl)thiazol-2-yl)acetamide]: the IC50 was < 1 nM.

Consider `CC(=O)Nc1nc(F)c(CN2C[C@H](Oc3ccn4nc(C)nc4c3)C[C@@H]2C)s1` [Example 173, N-(4-fluoro-5-(((2S,4R)-2-methyl-4-((2-methyl-[1,2,4]triazolo[1,5-a]pyridin-7-yl)oxy)pyrrolidin-1-yl)methyl)thiazol-2-yl)acetamide], for which the IC50 is < 1 nM.

With `CC(=O)Nc1ncc(CN2C[C@H](Oc3cc4cn(C)nc4cn3)C[C@@H]2C)s1` [Example 87, N-(5-(((2S,4R)-2-methyl-4-((2-methyl-2H-pyrazolo[3,4-c]pyridin-5-yl)oxy)pyrrolidin-1-yl)methyl)thiazol-2-yl)acetamide], the IC50 was < 1 nM.

(Values after US12522595B2, “Bicyclic ether O-glycoprotein-2-acetamido-2-deoxy-3-D-glucopyranosidase inhibitors” (BIOGEN MA INC., priority 2019, dated 2026).)
